Laboratory results taken from patent US20240000754A1, “METHODS OF TREATMENT OF LIVER FAILURE” (GENFIT, priority 2020, published 2024).

Legend:
[1] = system: cirrhotic rats after LPS injection (ACLF); experiment: ACLF model: LPS injection in TAA-cirrhotic rats; format: in vivo
Protocol: Male Sprague Dawley rats (175-200 g) (Janvier Labs, France) received intraperitoneal injections of thioacetamide (TAA) 3 times a week at the dose of 150 mg/kg during the first week and then at 200 mg/kg during 14 weeks to induce cirrhosis. Rats were stratified to treatment groups (n=5 per group) based on mean plasma levels of fibrosis markers (alpha-2 macroglobulin and Metallopeptidase Inhibitor 1 (TIMP1)) and liver function tests (plasma total bile acid and albumin) obtained from sublingual blood sampling.
After cirrhosis induction, rats received a single intraperitoneal injection of 0.05 mg/kg lipopolysaccharide (LPS from Escherichia coli O111:64, Sigma-Aldrich) to induce ACLF, one week after TAA administration was stopped. […] Plasma were obtained from sublingual blood sampling just before sacrifice.
The concentration of total bile acids was measured using the appropriate Randox kit for Daytona Plus automate (Randox, cat #BI 3863). In the presence of Thio-NAD, the enzyme 3-alpha hydroxysteroid dehydrogenase (3-a HSD) converts bile acids to 3-keto steroids and Thio-NADH. The reaction is reversible and 3-a HSD could convert 3-keto steroids and Thio-NADH to bile acids and Thio-NAD. In the presence of excess NADH, the enzyme cycling occurs efficiently and the rate of formation of Thio-NADH is determined by measuring specific change of absorbance at 405 nm.

[2] = system: mice with acetaminophen (APAP) intoxication; experiment: Acetaminophen-induced acute liver failure in mice; format: in vivo; details: APAP 300 mg/kg i.p., NTZ 50 mg/kg gavage 30 minutes before, 6 hours after APAP
Protocol: Acute liver failure was induced by administration of toxic dose of acetaminophen (APAP) in mice. After a 5-day acclimation period, 8 week-old C57BL/6J male mice (Janvier, France) were stratified into 3 groups of 10 mice according to their body weight. All mice were fasted overnight before the administration of 300 mg/kg APAP by intraperitoneal injection. […] Mice had free access to food and water right after APAP injection. Six hours after APAP injection, blood was collected in all mice on heparin by retro-orbital sinus punction under anesthesia. Liver injury was assessed by plasma aspartate aminotransferase (AST) determined using a Horiba Pentra 400 machine and related Pentra assay kit (Horiba France SAS, France). Animals were sacrificed 24 hours post-APAP administration by cervical dislocation, exsanguinated with saline and liver samples were collected and weighed.

[3] = system: rats with BDL+LPS-induced ACLF; experiment: Kidney function in BDL+LPS-induced ACLF in rats; format: in vivo; details: NTZ 100 mg/kg gavage, 3 hours post-LPS
Protocol: BDL surgery of rats and acute decompensation were performed as in the previous example.
Renal injury was evaluated by serum cystatin C concentrations determined by ELISA (Mouse/Rat Cystatin C Immunoassay Quantikine® ELISA, MSCTC0, R&D Systems).

[4] = system: rats with BDL+LPS-induced ACLF; experiment: Brain edema in BDL+LPS-induced ACLF in rats; format: in vivo; details: LPS 1 μg/kg i.p., NTZ 100 mg/kg gavage just before LPS, 3 hours post-LPS
Protocol: BDL surgery was performed on 37 Sprague Dawley rats weighing approximately 270 g at Charles River laboratory (France). After anesthesia with isoflurane (Vetflurane, Alcyon, France), and cutaneous application of 2% lidocaine (Alcyon), a median laparotomy was performed to expose the liver and duodenum. The main bile duct was identified and dissected. After that, the bile duct was ligated in two parts: a first ligation was made in the middle of the bile duct, and the second ligation was made above the entrance of the pancreatic duct. The bile duct was then cut in the middle, to avoid recanalization.
The animals were then transferred to Genfit's animal facility (France) after a minimum of 5 days of recovery post-surgery. […] Unoperated animals were included in the study as healthy controls.
Twenty-two days after BDL surgery, acute decompensation was induced by intraperitoneal administration of 1 μg/kg LPS (Escherichia coli O111:64, Sigma-Aldrich, Germany). Four rats with BDL received phosphate buffer saline (PBS, Fisher Scientific, USA) instead of LPS to be used as BDL controls. Each animal was continuously observed following LPS injection in order to assess the degree of severity of the inflammatory response and pain. […]

[5] = system: rats with CCl4+LPS-induced ACLF; experiment: Example 8: renal function markers in CCl4+LPS-induced ACLF in rats; format: in vivo; details: 15 weeks CCl4 + LPS, NTZ 50 mg/kg BID 3 days, 24 h after LPS
Protocol: Cirrhosis decompensation often associates with alterations of kidney functions. […] Briefly, ACLF was induced by lipopolysaccharide (LPS) injection in rats with advanced liver fibrosis/cirrhosis induced by repeated carbon tetrachloride (CCl4) administrations for 15 weeks.
The protocol study included 4 phases: • 1) Pre-sensitization phase: phenobarbital (P5178, Sigma Aldrich) was added to the drinking water ([…]) of 32 4-week-old male Sprague-Dawley rats (˜200 gr, Janvier Lab) for 2 weeks in order to activate cytochrome enzymes that metabolize CCl4. • 2) Induction of liver fibrosis: chronic liver damages were induced by repeated (twice a week) oral CCl4 (ref: 289116, Sigma Aldrich; diluted in olive oil) administrations (increasing doses starting with 0.10 ml/kg, adding 0.05-0.10 ml/kg at each administration to reach 0.85 ml/kg at 7 weeks and thereafter) for up to 15 weeks, with final doses as follows:
• 3) Treatment phase: after 15 weeks of CCl4 administration, CCl4 gavage was stopped one week before LPS administration.
During the first hours following LPS administration, each animal was continuously observed in order to assess the degree of severity of the inflammatory response and pain. The appearance of the animal (change in fur, skin color), the degree of activity and vigilance (response to a stimulus, opening of the eyelids, activity . . . ), gait and attitude were monitored. Any animal showing evident signs of suffering and close to death was euthanized. […] All surviving animals were euthanized 24 h after LPS challenge for plasma and tissue analyses. […]
Renal injury was evaluated by plasma creatinine, urea and cystatin C concentrations. Plasma creatinine and urea concentrations were measured using the appropriate Randox kits (CR 8316, UR 8334, respectively) for Daytona plus automate (Randox, cat #BR 8377) using the manufacturer instructions. Plasma cystatin C concentration was determined by ELISA (Mouse/Rat Cystatin C Immunoassay Quantikine® ELISA, MSCTC0, R&D Systems).

[6] = system: hepatic transcriptome of mice; experiment: Hepatic transcriptomic analysis (RNA-seq) in CDAA/c diet-fed mice treated with NTZ; format: in vivo; details: NTZ 100 mg/kg/day versus CDAA/c alone, adjusted p=2.6×10-13
Protocol: Liver injury was induced in 5-6 week-old male C57Bl/6 mice (Janvier Labs, France) by feeding them a cholesterol (1%) supplemented choline-deficient L-amino acid-defined diet (CDAA/c) (Ssniff, Germany) for 12 weeks (n=12). Some animals received from day 1 and throughout the study CDAA/c diet supplemented with NTZ (Interchim, France) (100 mg/kg/day) (n=8). Mice receiving choline supplemented L-amino acid-defined (CSAA) diet served as additional controls (n=6).
Total RNA was isolated from mice livers using Nucleospin® 96 RNA kit (ref 740709.4, Macherey Nagel, France) (n=5). Upon measurement of RNA samples concentration by Multiskan™ GO spectrophotometer (Thermo Scientific, France), the quality was assessed using 2100 Bioanalyser from Agilent (USA). […]
Then reads were aligned on the genome reference (Mus musculus GRCm38.90—GenBank assembly accession GCA_000001635.2) with rnacocktail using hisat2 v.2.1.0 as aligner with default parameters (Sahraeian et al. Nature communications 2017). […]
To identify differentially expressed genes (DE genes), we used R (version 3.4.3) and the DESEq2 library (v. 1.18.1). […] Briefly, the count matrix produced by FeatureCounts was analyzed by the DESeqDataSetFromMatrix( ) function followed by the DEseq( ) function from the DESeq2 library. […]

[7] = system: rats with CCl4+LPS-induced ACLF; experiment: Example 9: CCl4+LPS-induced acute-on-chronic liver failure in rats; format: in vivo
Protocol: This study included 4 phases: • 1) Pre-sensitization phase: phenobarbital ([…]) (ref P5178-25G, Sigma-Aldrich) was added to the drinking water of 4-week-old male Sprague-Dawley rats (˜200 g) for 2 weeks prior to CCl4 administration • 2) Induction phase: hepatic severe fibrosis was induced by repeated oral tetrachlorure (CCl4) administrations (twice a week, increasing doses from 0.10 to 0.85 ml/kg, twice weekly) for 10 or 15 weeks, with the same protocol as the protocol described in example 8. • 3) Treatment phase: after 15 weeks of CCl4 administrations, gavage was stopped one week before LPS administration. […] A last dose (50 mg/kg) was administered 30 minutes just before ACLF induction. • 4) ACLF induction: LPS was administrated i.p. at 0.03 mg/kg.
LPS solution (Escherichia coli O111:64, Sigma-Aldrich, Germany) was prepared under a microbiological safety cabinet and was dissolved in phosphate buffer saline (PBS) at 15 μg/mL, aliquoted and frozen until the day of experiment. LPS was administered at 2 m L/kg to the rats.
38 male Sprague-Dawley rats (Janvier Labs, France) have been allocated to this study. Animals had ad libitum access to water and chow diet (ref E15000-04, Ssniff, Germany) all along the study. After 9 weeks of CCl4 administration, animals were randomly allocated to 2 groups according to ammonia and albumin plasmatic levels (in order to have similar means in the two groups).
ACLF was evaluated, at the end of the study, by biochemical analyses of hepatic and renal injury or function biomarkers.
At the end of the study, blood was collected by sublingual vein puncture under light isoflurane anesthesia and transferred to ethylenediamine tetra-acetic acid (EDTA), serum-gel, and lithium heparin tubes. EDTA and lithium heparin tubes containing blood were rapidly centrifuged and the plasma fraction was collected. Plasma aliquot of heparin lithium were snap frozen in liquid nitrogen and stored at −80° C., EDTA-plasma aliquots were stored at −20° C. and serum-gel tubes were kept at room temperature for 30 minutes, centrifuged and stored at −20° C.
Experimental results are expressed as mean±standard deviation and plotted as bar graphs. Comparison between groups was tested using a Student T test for all variables that follows a normal distribution (#: p<0.05; ##: p<0.01; ###: p<0.001). A Welsh test was applied in case of different variances between groups (3a: p<0.05; cm: p<0.01; man: p<0.001). A log-transformation was applied for plasma ALT and AST in all samples to obtain a normal data distribution. For other non-normally distributed variables, a non-parametric Mann-Whitney test was applied ($: p<0.05; $$: p<0.01; $$$: p<0.001). Differences to the Ctrl week 10 (W10) group are notified, if not otherwise specified.

[8] = system: HepG2 cells; experiment: NH4Cl-induced mortality in HepG2 cells (CytoTox-Glow dead cell protease activity); format: cell-based, human; details: HepG2, NTZ 0-5 μM, 60 mM and 120 mM NH4Cl, 14 hours
Protocol: After cell adherence (10 hours), cells were washed with PBS and were incubated in the presence of 0, 60, or 120 mM of NH4Cl (Fluka, France) in DMEM without L-Glutamine and FBS for 14 hours.
Cytotoxicity was measured using CytoTox-Glow™ assay (#G9291, Promega, USA). Briefly, 100 μL of reagent was added per well, and the plates were incubated in the dark at room temperature for 15 min. The CytoTox-Glow™ Assay is a luminescent cytotoxicity assay that measures the relative number of dead cells in cell populations. Luminescence was measured using a Spark microplate reader (#30086376, Tecan, USA). The amount of luminescence (RLU) directly correlates with the percentage of cells undergoing cytotoxic stress.

[9] = system: TAA induced cirrhosis in rats; experiment: TAA-induced cirrhosis in rats: liver function and fibrosis; format: in vivo; details: 16 weeks TAA
[10] = NTZ 30 mg/kg/day in diet for last 4 weeks, versus TAA control

With CC(=O)Oc1ccccc1C(=O)Nc1ncc([N+](=O)[O-])s1 [NTZ, nitazoxanide] the “Circulating (plasma total) bile acids level” value ([1]; TAA-cirrhotic rats after ACLF induction by LPS, versus vehicle) was “reduced”, the “Delay of time to death” value ([1]; TAA-cirrhotic rats, LPS 0.05 mg/kg i.p., NTZ oral gavage 50 mg/kg/day BID 3 days plus last dose 30 minutes before LPS) was 1 h and the “Plasma AST” value [2] was “greatly reduced AST to a level similar to that with NAC”. For the same compound, the “Serum cystatin C” value [3] was “drastically reduced cystatin C, almost to the level of healthy controls”, the “Brain water (brain edema, % of water contained in brain)” value [4] was “remarkably reduced” and the Plasma creatinine [5] was “restoring creatinine, urea and cystatin C levels to the levels of the olive oil controls”. For the same compound, the “Plasma cystatin C” value [5] was “restoring creatinine, urea and cystatin C levels to the levels of the olive oil controls”, the Plasma urea [5] was “restoring creatinine, urea and cystatin C levels to the levels of the olive oil controls” and the “Induction of GluI expression” value [6] was 1.6 fold. For the same compound, the “Survival 24 h after LPS injection” value ([7]; rats, 15 weeks CCl4 + LPS 0.03 mg/kg i.p., NTZ 50 mg/kg BID 3 days, same in vehicle group) was 60%, the “Reduction of serum IFNγ” value ([7]; rats, CCl4 15 weeks and LPS, p=0.04) was 56% and the “Mortality over 24 hours” value ([7]; rats, CCl4 + LPS, NTZ 50 mg/kg BID 3 days, same in vehicle group (4/10 rats)) was 40%. For the same compound, the “Change of plasma urea” value ([7]; surviving rats 24 hours post-LPS, LPS-induced renal impairment, p=0.002) was −92%, the “Change of plasma creatinine” value ([7]; surviving rats 24 hours post-LPS, LPS-induced renal impairment, p=0.009) was −102% and the “Change of plasma cystatin C” value ([7]; surviving rats 24 hours post-LPS, LPS-induced renal impairment, p=0.02) was −166%. The “Reduction of plasma AST” value ([7]; surviving rats 24 hours post-LPS, NTZ versus vehicle, p=0.005) was 87%, the “Reduction of plasma ALT” value ([7]; surviving rats 24 hours post-LPS, NTZ versus vehicle, p=0.007) was 80% and the “Reduction of total bilirubin” value ([7]; surviving rats 24 hours post-LPS, plasma, p=0.02) was 80%. For the same compound, the “Restoration of albumin production” value ([7]; surviving rats 24 hours post-LPS, plasma, p=0.04) was 95%, the “Plasma GGT level” value ([7]; surviving rats 24 hours post-LPS, LPS vehicle 11.2 U/I) was less than 6.15 U/I and the “Mortality rate (dead cell protease activity)” value [8] was “reduced the mortality rate in a dose-dependent manner”. The Collagen proportionate area ([9]; NTZ 30 mg/kg/day for last 4 weeks, TAA control 7.74±0.38%, p=0.77) was 7.53±0.64%, the Plasma albumin [9, 10] was “rescued” and the Plasma total bilirubin [9, 10] was “drastically decreased”.
